In patent US12479895B2, “C-terminal CDNF and MANF fragments, pharmaceutical compositions comprising same and uses thereof” (MyNeuroCure Oy, priority 2018, dated 2025):

Key:
[1] = test system: E14 dopamine neurons; assay: Internalization experiment on dopaminergic neurons; type: cell-based, Mouse; conditions: 30,000 cpm of iodinated protein, 37° C., 2 hr, acid wash
Experimental: Mouse E13.5 dopamine neurons grown on the 24 well plate in culture were incubated with 30,000 cpm of iodinated CDNF or C-CDNF per well at 37° C. 2 hr. The cells were transferred to ice and washed once with 0.5 ml of the ice cold media. Then cells were transferred to Eppendorf tubes and washed at 4° C. once with 0.2M acetic acid, 0.5M NaCl, pH 2.8. After centrifugation at 1000 g for 10 min cells were dissolved in 0.5 ml of 0.5 N NaOH and counted on the gamma counter.

[2] = test system: ER stressed SCG neurons; assay: Survival of tunicamycin-treated (ER stressed) SCG sympathetic neurons after microinjection; type: cell-based, mice; conditions: for survived neurons as % compared to neurons grown in the presence of NGF: microinjected into cytoplasm, CDNF (400); for Fold change of survived neurons compared to neurons injected with PBS: data of Table 1 divided by values of PBS
Procedure, shortened: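 Newborn mouse SCG neurons grown 5-6 days with 30 ng/ml NGF, then microinjected with CDNF (FL or C-terminal) plasmids (10 ng/ul, EGFP reporter) or proteins (200 ng/ul, Dextran Texas Red). Tunicamycin (2 μM) added next day. Fluorescent survivors counted blindly after 3 days as % of initial; compared with vector or PBS (ANOVA/Dunnett).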

[3] = test system: dopamine neurons; assay: Survival of TH-positive dopamine neurons in dissociated midbrain floor cultures; type: cell-based, mouse; conditions: for survived neurons as % compared to neurons grown in the presence of GDNF / protection of dopaminergic neurons in culture (result in words): 5 days; for protection of dopaminergic neurons in culture (result in words): added to the culture medium, TH-positive neurons counted; for Fold change of survived neurons compared to neurons grown without growth factors: data of Table 3 divided by values of no factor
Procedure, shortened: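 Dissociated E13.5 NMRI mouse midbrain floor neurons grown five days in DMEM/F12 with N2, with polypeptides at a range of concentrations, GDNF (100 ng/ml), or nothing. TH-immunopositive neurons were counted by imaging. Values are a percentage of GDNF-maintained TH-positive neurons, as mean ± SEM from at least three independent cultures.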

[4] = test system: rat 6-OHDA model of PD; assay: Neurorestoration study in 6-OHDA model of PD in rats; type: in vivo
[5] = test system: mouse beta cell proliferation; assay: Beta cell proliferation assay; type: cell-based; conditions: mouse islets cultured in vitro for 5 days
Experimental: Islets from female, virgin 8 weeks old C57bl6Rcc mice were isolated. Islets were recovered o/n in growth medium and the next day equal numbers of islets/well (70/well) were treated for 5 days with placental lactogen (PL 500 ng/ml), C-MANF, or MANF. Half of the medium was changed daily to fresh medium with growth factors. Edu, a nucleoside analog alternatively to BrdU (Click-iT® Edu proliferation kit, Invitrogen) was added 48 hrs prior to islet harvesting. Islets were broken with trypsin and centrifuged onto glass slides in cytocentrifuge. Cells were fixed after cytospins and proliferating cells stained with Click-iT AlexaFluor azide color reagent, followed by insulin staining (guinea-pig 1:200, Abcam, Cambridge, UK) o/n at +4° C. to detect beta cells. Cells were washed and stained with secondary antibodies conjugated with Alexa Fluor® 488 (1:400, Molecular Probes, Life Technologies, CA, USA). […] Twelve images (10× magnification) were acquired with Fluorescence Zeiss Axiolmager M2 482 epifluorescence microscope equipped with 40×/Plan-Apochromat/0.95 Corr M27 and 63×/Plan-Apochromat/1.40 Oil/M27 and 483 AxioCam HRm camera using AxioVision4 software and analysed by Image Pro Plus software (Media Cybernetics, Bethesda, MD, USA) to quantify number of DAPI-positive nuclei. The relative numbers of proliferating beta cells were quantified and compared to wells of three to five repeats/treatment.

[6] = rat, in vivo, sc
Experimental: CDNF, C-CDNF and C-MANF were iodinated with ^125I-Na using the lactoperoxidase method. The protein in question was dissolved in 30 μl of 0.25 M phosphate buffer, pH 7.5, and mixed with ^125I-Na (1 mCi/2.8 μl; 1 mCi=37 mBq; GE Healthcare). The reaction was started by adding lactoperoxidase 10 μl of 50 μg/ml and 0.05% H2O2. The mixture was incubated at room temperature for 20 min and the reaction was stopped by adding 3 volumes of 0.1 M phosphate buffer, pH 7.5, containing 0.1 M NaI, 0.42 M NaCl, and then 25 μl of 2.5% BSA was added. Free iodine and iodinated protein were separated by gel filtration on Sephadex G-25 columns (PM10; GE Healthcare). For column equilibrium and elution, 0.1 M phosphate buffer, pH 7.5, with 1% BSA was used. The iodinated growth factors were sometimes concentrated by using YM-10 Centricon columns (Millipore). The specific activity of ^125I-labeled CDNF, C-CDNF and C-MANF was measured on the Wizard 3 1480 Automatic Gamma Counter (Perkin Elmer, Wallac) and was about 10^8 cpm/μg protein. The labelled protein were kept at 4° C. and used within 3 weeks after labelling.
^125I-CDNF, ^125I C-CDNF or ^125I C-MANF (all proteins at 10^6 cpm in 10 μl) were injected subcutaneously to adult male Wistar rats. […] Radioactivity was analyzed in different brain regions by gamma counter. […] The differences between groups were analyzed ANOVA followed by Tukey-Kramers post hoc test.

^125I-CDNF: CDNF iodinated with 125I-Na using the lactoperoxidase method
internalization into dopamine neurons (radioactivity inside the cells) [1]: but not ^125I-CDNF is efficiently internalized

TLDLASVDLRKMRVAELKQILHSWGEECRACAE (listed as Homo sapiens) [pep15]
survived neurons as % compared to neurons grown in the presence of NGF ([2]; Table 1B (FIG. 16), exp1, tunicamycin 2 μM, counted after 3 days): 70.17 % NGF
survived neurons as % compared to neurons grown in the presence of NGF ([2]; Table 1B (FIG. 16), exp2, tunicamycin 2 μM, counted after 3 days): 61.81 % NGF
survived neurons as % compared to neurons grown in the presence of NGF ([2]; Table 1B (FIG. 16), exp3, tunicamycin 2 μM, counted after 3 days): 71.42 % NGF
rescue of ER stressed SCG neurons (result in words) ([2]; protein or peptide microinjected into the cytoplasm, tunicamycin 2 μM, living fluorescent neurons counted after 3 days): rescue
survived neurons as % compared to neurons grown in the presence of GDNF ([3]; Table 3B (FIG. 17), AVG, 1 ng/ml): 73.72 % GDNF
survived neurons as % compared to neurons grown in the presence of GDNF ([3]; Table 3B (FIG. 17), AVG, 10 ng/ml): 87.03 % GDNF
survived neurons as % compared to neurons grown in the presence of GDNF ([3]; Table 3B (FIG. 17), AVG, 100 ng/ml): 93.53 % GDNF
survived neurons as % compared to neurons grown in the presence of GDNF ([3]; Table 3B (FIG. 17), AVG, 1000 ng/ml): 86.15 % GDNF
protection of dopaminergic neurons in culture (result in words) [3]: best protective effect
protection against 6-OHDA-induced impairment in motor imbalance (amphetamine-induced rotational behavior) ([4]; subcutaneous injections 50 μg twice a week for 4 weeks starting two weeks post-lesion, p<0.001 vs vehicle): effective

CKGC [MANF4, reference compound]
efficacy on amphetamine-induced rotations ([4]; infused into the striatum starting 2 weeks after 6-OHDA lesioning, rotations up to 12 weeks post lesioning): not effective

VDLRKMRVAELKQILHSWGEECRACAEKTDYVNLIQELAPKYAATHPKTEL (listed as Homo sapiens) [pep5]
survived neurons as % compared to neurons grown in the presence of NGF ([2]; Table 1A (FIG. 14), AVG of exp1-2, tunicamycin 2 μM): 81.78 % NGF
survived neurons as % compared to neurons grown in the presence of NGF ([2]; Table 1A (FIG. 14), exp1, tunicamycin 2 μM, counted after 3 days): 86.36 % NGF
survived neurons as % compared to neurons grown in the presence of NGF ([2]; Table 1A (FIG. 14), exp2, tunicamycin 2 μM, counted after 3 days): 77.19 % NGF
Fold change of survived neurons compared to neurons injected with PBS ([2]; Table 2, AVG): 2.23 Fold to PBS
Fold change of survived neurons compared to neurons injected with PBS ([2]; Table 2, exp1): 2.52 Fold to PBS
Fold change of survived neurons compared to neurons injected with PBS ([2]; Table 2, exp2): 1.94 Fold to PBS
survived neurons as % compared to neurons grown in the presence of GDNF ([3]; Table 3A (FIG. 15), AVG, 1 ng/ml): 64.92 % GDNF
survived neurons as % compared to neurons grown in the presence of GDNF ([3]; Table 3A (FIG. 15), AVG, 10 ng/ml): 76.19 % GDNF
survived neurons as % compared to neurons grown in the presence of GDNF ([3]; Table 3A (FIG. 15), AVG, 100 ng/ml): 73.84 % GDNF
survived neurons as % compared to neurons grown in the presence of GDNF ([3]; Table 3A (FIG. 15), AVG, 1000 ng/ml): 65.13 % GDNF
survived neurons as % compared to neurons grown in the presence of GDNF ([3]; Table 3A (FIG. 15), exp1, 1 ng/ml): 65.24 % GDNF
survived neurons as % compared to neurons grown in the presence of GDNF ([3]; Table 3A (FIG. 15), exp1, 10 ng/ml): 61.71 % GDNF
survived neurons as % compared to neurons grown in the presence of GDNF ([3]; Table 3A (FIG. 15), exp1, 100 ng/ml): 59.82 % GDNF
survived neurons as % compared to neurons grown in the presence of GDNF ([3]; Table 3A (FIG. 15), exp1, 1000 ng/ml): 59.11 % GDNF
survived neurons as % compared to neurons grown in the presence of GDNF ([3]; Table 3A (FIG. 15), exp2, 1 ng/ml): 59.23 % GDNF
survived neurons as % compared to neurons grown in the presence of GDNF ([3]; Table 3A (FIG. 15), exp2, 10 ng/ml): 82.61 % GDNF
survived neurons as % compared to neurons grown in the presence of GDNF ([3]; Table 3A (FIG. 15), exp2, 100 ng/ml): 75.53 % GDNF
survived neurons as % compared to neurons grown in the presence of GDNF ([3]; Table 3A (FIG. 15), exp2, 1000 ng/ml): 58.84 % GDNF
survived neurons as % compared to neurons grown in the presence of GDNF ([3]; Table 3A (FIG. 15), exp3, 1 ng/ml): 70.31 % GDNF
survived neurons as % compared to neurons grown in the presence of GDNF ([3]; Table 3A (FIG. 15), exp3, 10 ng/ml): 84.24 % GDNF
survived neurons as % compared to neurons grown in the presence of GDNF ([3]; Table 3A (FIG. 15), exp3, 100 ng/ml): 86.17 % GDNF
survived neurons as % compared to neurons grown in the presence of GDNF ([3]; Table 3A (FIG. 15), exp3, 1000 ng/ml): 77.44 % GDNF
Fold change of survived neurons compared to neurons grown without growth factors ([3]; Table 4, AVG, 1 ng/ml): 1.06 fold
Fold change of survived neurons compared to neurons grown without growth factors ([3]; Table 4, AVG, 10 ng/ml): 1.23 fold
Fold change of survived neurons compared to neurons grown without growth factors ([3]; Table 4, AVG, 100 ng/ml): 1.19 fold
Fold change of survived neurons compared to neurons grown without growth factors ([3]; Table 4, AVG, 1000 ng/ml): 1.05 fold
Fold change of survived neurons compared to neurons grown without growth factors ([3]; Table 4, exp1, 1 ng/ml): 1.14 fold
Fold change of survived neurons compared to neurons grown without growth factors ([3]; Table 4, exp1, 10 ng/ml): 1.08 fold
Fold change of survived neurons compared to neurons grown without growth factors ([3]; Table 4, exp1, 100 ng/ml): 1.05 fold
Fold change of survived neurons compared to neurons grown without growth factors ([3]; Table 4, exp1, 1000 ng/ml): 1.03 fold
Fold change of survived neurons compared to neurons grown without growth factors ([3]; Table 4, exp2, 1 ng/ml): 0.94 fold
Fold change of survived neurons compared to neurons grown without growth factors ([3]; Table 4, exp2, 10 ng/ml): 1.31 fold
Fold change of survived neurons compared to neurons grown without growth factors ([3]; Table 4, exp2, 100 ng/ml): 1.20 fold
Fold change of survived neurons compared to neurons grown without growth factors ([3]; Table 4, exp2, 1000 ng/ml): 0.93 fold
Fold change of survived neurons compared to neurons grown without growth factors ([3]; Table 4, exp3, 1 ng/ml): 1.09 fold
Fold change of survived neurons compared to neurons grown without growth factors ([3]; Table 4, exp3, 10 ng/ml): 1.30 fold
Fold change of survived neurons compared to neurons grown without growth factors ([3]; Table 4, exp3, 100 ng/ml): 1.33 fold
Fold change of survived neurons compared to neurons grown without growth factors ([3]; Table 4, exp3, 1000 ng/ml): 1.20 fold

B1: KYDKQIDLSTVDLKKLRVKELKKILDDWGETCKGCAEKSDYIRKINELMPKYAPKAASARTDL (protein, listed as Homo sapiens)
chain: KYDKQIDLSTVDLKKLRVKELKKILDDWGETCKGCAEKSDYIRKINELMPKYAPKAASARTDL
protection of dopaminergic neurons in culture (result in words) [3]: protects
protection of dopaminergic neurons in culture (result in words) ([3]; listed as C-terminal MANF fragment): potently protected
mouse beta cell proliferation (incorporation of Click EdU) [5]: stimulates
blood-brain-barrier penetration [6]: capable of penetrating
